Non-standard residues stand in square brackets, D forms with d. Residues, ends and D or L forms follow the SMILES beside them. pY = N[C@@H](Cc1ccc(OP(=O)(O)O)cc1)C(=O)O
Columns and labels:
Grb2-SH2 domain [1] = molecular target: T1, Grb2-SH2 domain (Homo sapiens, UniProt P62993); assay: 2D 1H double-quantum (DQ) NMR screening of compound mixtures with and without the protein; format: binding; settings: 25°C, pH 6.2; for identification as ligand by comparison of 2D DQ spectra and 2D DQ difference spectrum: mixture 2, 300 µM each compound, 50 µM protein (6:1)
T1 construct: The SH2 domain of Grb2 was expressed in E. coli as GST fusion proteins; GST (cleaved yes); made in house; host or cells: E. coli
T1 sequence (P62993 60-152 limits assumed): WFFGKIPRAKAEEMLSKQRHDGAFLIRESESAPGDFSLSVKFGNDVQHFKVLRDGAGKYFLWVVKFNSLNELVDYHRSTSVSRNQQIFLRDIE
Description: The feasibility of the invention in identifying ligands was tested with mixtures of compounds against the Grb2-SH2 domain. […] Figure 2 illustrates the DQ fingerprint region of a compound mixture (mixture 1) recorded with the pulse sequence of Figure 1a in the absence (a) and in the presence (b) of the protein. […] The NH protein resonances are not visible in Figure 2 (b) due to their short T (SQ)/(2) [formula] and T^DQ and the lower protein concentration (50 µM). The protein aromatic resonances have a longer T (SQ)/(2) [formula] and T^DQ compared to the amide resonances and their presence in the DQ spectrum may interfere with the observation of the ligand signals. Figure 3(a) illustrates the aromatic region of the 2D relaxation weighted DQ spectrum for mixture 1. Figures 3 (b) and (c) depict the same spectral region of the 2D DQ and relaxation weighted DQ spectrum of mixture 1 in the presence of the Grb2 SH2 domain, respectively. […] The large linewidth of all the protein resonances and the antiphase character of the DQ multiplets along ω2 results in complete cancellation of the positive and negative lobes. […] Only the compound resonances that display changes in intensity or chemical shift in the presence of the protein will be visible in the difference spectrum.
All the spectra were acquired at 25°C with the pulse sequences of Figure 1 using a Varian Inova 600 MHz spectrometer equipped with a 5 mm triple-resonance inverse probe and actively shielded x, y, and z- gradient coils. The DQ spectra were collected using 8 to 32 transients for each of the 256 t1 increments (128 t1 values for both the echo and antiecho pathway selections) and with 2048 points in t2. The data were multiplied with a cosine window function in both dimensions prior to the Fourier transformation.
The excitation DQ period τ was 42 ms long and the angle β of the detection pulse was set to 45° and 135° for the antiecho and echo coherence pathway selection, respectively. The coherence selection gradients G1 to G3 were set at the magic angle using only the x and z components of the gradients. The first two PFGs applied at the beginning and end of the excitation double-quantum period were weak gradients for radiation damping suppression. The 2D spectral differencing was performed with the software provided by Varian. The scaling factor used in the examples reported here was -1. However it can be adjusted manually for allowing small variations in concentration of the protein-ligand mixture and ligand mixture solutions.

Grb2-SH2 domain [2] = assay: 2D 1H double-quantum NMR screening of compound mixtures for ligand binding; settings: mixture 2, each compound 300 µM, protein 50 µM (6:1), 25°C, pH 6.2
Excerpt: From a practical point of view, the steps involved in the detection of binding are preferably the following: • a) mixing together from 1 to n chemical compounds not interacting with each other; • b) recording a two-dimensional ^1H DQ or DQC (refocussed or not) relaxation weighted DQ spectrum (preferentially version with PFG) for the said compound mixture in the absence of the target biomolecule; • c) mixing the said compound mixture with the target biomolecule where each of the molecules comprising the mixture is preferably present at a molar ratio to the target biomolecule of about 1:1 to about 20:1 • d) recording a two-dimensional ^1H DQ or DQC (refocussed or not) relaxation weighted DQ spectrum (preferentially version with PFG) for the said compound mixture in the presence of the target biomolecule; • e) comparing the spectra recorded in steps b) and d) to detect which, if any of the chemical entities of the mixture, has interacted with the target biomolecule; and, optionally • f) recording a two-dimensional ^1H DQ or DQC (refocussed or not) relaxation weighted DQ spectrum (preferentially version with PFG) for each of the compounds which have been detected in step (e) above, with and without the target protein.
The feasibility of the invention in identifying ligands was tested with mixtures of compounds against the Grb2-SH2 domain. […]

Compound | identification as ligand by comparison of 2D DQ spectra and 2D DQ difference spectrum (Grb2-SH2 domain [1]) | also measured
CC(=O)N[C@@H](Cc1ccc(OP(=O)(O)O)cc1)C(=O)N[C@H](C(N)=O)C(C)C [Ac-Tyr(PO3H2)-Val-NH2] (Ac-[pY]-Val-NH2) | potential very weak ligand | identification as ligand by comparison of 2D DQ spectra and 2D DQ difference spectrum (Grb2-SH2 domain [1]; listed as compound B): possible weak interaction
Ac-(N-Me)Phe(p-CH2PO3H2)-Val-Asn-NH-CH2-CH(CH3)2 | – | identification as ligand by comparison of 2D DQ spectra (Grb2-SH2 domain [1]; mixture 1, 100 µM each compound, 50 µM protein (2:1)): ligand for Grb2-SH2
c1ccc2[nH]ccc2c1 [Indole, indole] | – | identification as ligand (2D DQ spectra and 2D DQ difference spectrum with/without protein) (Grb2-SH2 domain [2]): do not interact with the protein

Further lines, with some results ahead:

identification as ligand by comparison of 2D DQ spectra and 2D DQ difference spectrum (Grb2-SH2 domain [1]) | Compound | also measured
potent ligand | Ac-Tyr(PO3H2)-Val-NH-CH2-CH2-CONH2 | –
do not interact with the protein | Ac-Tyr-Val-Asn-Val-OH (Ac-YVNV-OH) | –
